Assay results published in patent US9169243B2, “Apoptosis signal-regulating kinase inhibitors” (Gilead Sciences, Inc., priority 2013, dated 2015).

Target: recombinant human ASK1 kinase (Homo sapiens (Human), UniProt Q99683)
Experiment: TR-FRET ASK1 (Apoptosis Signal-Regulating Kinase 1) kinase assay
Format: biochemical
Conditions: TR-FRET/HTRF, 4 nM ASK1, 1 μM STK3 peptide substrate, 100 μM ATP, 3 hr; average of quadruplicate determination
From the text: I. TR-FRET ASK1 (Apoptosis Signal-Regulating Kinase 1) Kinase Assay
To evaluate the inhibitory activity of compounds of the invention against ASK1 (Apoptosis Signal-regulating Kinase 1) kinase, its activity was examined using a TR-FRET ASK1 kinase assay which determined the amount of phosphate transferred to a peptide substrate from ATP.
Dephosphorylated recombinant human ASK1 kinase was from Gilead Sciences. Small molecule kinase inhibitor staurosporine (Catalogue #S6942) and dithiothreitol (DTT, catalogue #43815-5G) were obtained from Sigma Chemicals (St. Louis, Mo.). ATP (catalogue #7724) was from Affymetrix (Santa Clara, Calif.) and test compounds were from Gilead Sciences. HTRF KinEASE™-STK S3 kit was obtained from Cisbio (Bedford, Mass.). All other reagents were of the highest grade commercially available.
The assay measures the phosphorylation level of a biotinylated peptide substrate by the ASK1 kinase using HTRF detection. This is a competitive, time-resolved fluorescence resonance energy transfer (TR-FRET) immunoassay, based on HTRF® KinEASE™-STK manual from Cisbio. Test compound, 1 μM STK3 peptide substrate, 4 nM of ASK1 kinase were incubated with 10 mM MOP buffer, pH. 7.0 containing 10 mM Mg-acetate, 0.025% NP-40, 1 mM DTT, 0.05% BSA and 1.5% glycerol for 30 minutes then 100 μM ATP was added to start the kinase reaction and incubated for 3 hr. Peptide antibody labeled with 1×Eu^3+ Cryptate buffer containing 10 mM EDTA and 125 nM Streptavidin XL665 were added to stop the reaction and phosphorylated peptide substrate was detected using Envision 2103 Multilabeled reader from PerkinElmer. The fluorescence was measured at 615 nm (Cryptate) and 665 nm (XL665) and a ratio of 665 nm/615 nm was calculated for each well. The resulting TR-FRET level (a ratio of 665 nm/615 nm) was proportional to the phosphorylation level. Under these assay conditions, the degree of phosphorylation of peptide substrate was linear with time and concentration for the enzyme. The assay system yielded consistent results with regard to Km and specific activities for the enzyme. For inhibition experiments (IC50 values), activities were performed with constant concentrations of ATP, peptide and several fixed concentrations of inhibitors. Staurosporine, the nonselective kinase inhibitor, was used as the positive control. All enzyme activity data are reported as an average of quadruplicate determination.
The IC50 values were calculated following equation: y=Range/{1+(x/IC50)^s}+Background where x and y represent the concentration of inhibitors and enzyme activity, respectively. Enzyme activity is expressed as the amount of Phosphate incorporated into substrate peptide from ATP. Range is the maximum y range (no inhibitor, DMSO control) and s is a slope factor.

recombinant human ASK1 kinase, sequence (Q99683 whole entry): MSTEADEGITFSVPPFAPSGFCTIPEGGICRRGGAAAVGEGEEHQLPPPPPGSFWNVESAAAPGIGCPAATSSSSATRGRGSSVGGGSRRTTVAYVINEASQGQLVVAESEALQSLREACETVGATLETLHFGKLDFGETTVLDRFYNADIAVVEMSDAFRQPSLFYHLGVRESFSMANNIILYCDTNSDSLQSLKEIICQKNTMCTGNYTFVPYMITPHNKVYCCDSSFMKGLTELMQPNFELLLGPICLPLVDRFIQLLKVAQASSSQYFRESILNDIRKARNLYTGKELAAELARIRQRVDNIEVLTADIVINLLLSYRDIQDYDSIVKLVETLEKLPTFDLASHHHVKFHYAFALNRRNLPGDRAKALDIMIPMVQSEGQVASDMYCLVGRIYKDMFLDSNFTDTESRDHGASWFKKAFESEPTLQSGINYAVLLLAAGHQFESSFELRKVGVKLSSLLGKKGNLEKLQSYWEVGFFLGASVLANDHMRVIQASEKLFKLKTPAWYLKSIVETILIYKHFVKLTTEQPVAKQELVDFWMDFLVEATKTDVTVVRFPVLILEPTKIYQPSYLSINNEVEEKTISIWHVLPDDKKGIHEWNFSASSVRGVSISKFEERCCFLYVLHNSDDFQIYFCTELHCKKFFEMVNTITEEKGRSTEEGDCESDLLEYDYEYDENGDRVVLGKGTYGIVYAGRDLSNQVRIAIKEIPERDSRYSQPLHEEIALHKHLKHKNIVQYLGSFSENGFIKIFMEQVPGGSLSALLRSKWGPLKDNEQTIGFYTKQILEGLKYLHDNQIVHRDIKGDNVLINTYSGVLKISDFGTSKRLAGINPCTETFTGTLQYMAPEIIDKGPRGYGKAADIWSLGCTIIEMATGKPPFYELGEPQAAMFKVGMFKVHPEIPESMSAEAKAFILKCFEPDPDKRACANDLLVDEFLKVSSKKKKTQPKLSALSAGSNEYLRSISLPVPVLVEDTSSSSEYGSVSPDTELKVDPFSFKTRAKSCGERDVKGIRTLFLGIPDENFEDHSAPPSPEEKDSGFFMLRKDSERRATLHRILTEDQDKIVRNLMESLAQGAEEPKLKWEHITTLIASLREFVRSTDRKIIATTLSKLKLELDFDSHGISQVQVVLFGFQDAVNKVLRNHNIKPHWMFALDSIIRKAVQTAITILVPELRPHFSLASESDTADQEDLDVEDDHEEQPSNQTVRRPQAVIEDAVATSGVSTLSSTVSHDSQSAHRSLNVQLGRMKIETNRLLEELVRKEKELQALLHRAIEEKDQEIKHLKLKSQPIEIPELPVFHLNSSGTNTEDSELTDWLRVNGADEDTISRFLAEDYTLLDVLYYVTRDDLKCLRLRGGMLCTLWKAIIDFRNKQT

IC50 [nM]	SMILES
2.6	C[C@H](n1cnnc1-c1nc(NC(=O)c2cc(-n3cnc(C4CC4)c3)c(N3CC4(CCOCC4)C3)cn2)cs1)C(F)(F)F [Compound 45, (S)-4-(4-cyclopropyl-1H-imidazol-1-yl)-5-(7-oxa-2-azaspiro[3.5]nonan-2-yl)-N-(2-(4-(1,1,1-trifluoropropan-2-yl)-4H-1,2,4-triazol-3-yl)thiazol-4-yl)picolinamide]
2.4	C[C@H](n1cnnc1-c1nc(NC(=O)c2cc(-n3cnc(C4CC4)c3)c(N3CC4CN(C)CC4C3)cn2)cs1)C(F)(F)F (stereo partly drawn) [Compound 38, 4-(4-cyclopropyl-1H-imidazol-1-yl)-5-(5-methylhexahydropyrrolo[3,4-c]pyrrol-2(1H)-yl)-N-(2-(4-((S)-1,1,1-trifluoropropan-2-yl)-4H-1,2,4-triazol-3-yl)thiazol-4-yl)picolinamide]
1.9	CC1(C#N)CN(c2cnc(C(=O)Nc3csc(-c4nncn4C4CC4)n3)cc2-n2cnc(C3CC3)c2)C1 [Compound 3, 5-(3-cyano-3-methylazetidin-1-yl)-4-(4-cyclopropyiimidazol-1-yl)-N-[2-(4-cyclopropyl-1,2,4-triazol-3-yl)-1,3-thiazol-4-yl]pyridine-2-carboxamide]
1.7	C[C@H](n1cnnc1-c1nc(NC(=O)c2cc(-n3cnc(C4CC4)c3)c(N3CCC(C#N)CC3)cn2)cs1)C(F)(F)F [Compound 29, (S)-5-(4-cyanopiperidin-1-yl)-4-(4-cyclopropyl-1H-imidazol-1-yl)-N-(2-(4-(1,1,1-trifluoropropan-2-yl)-4H-1,2,4-triazol-3-yl)thiazol-4-yl)picolinamide]
1.7	C[C@H](n1cnnc1-c1nc(NC(=O)c2cc(-n3cnc(C4CC4)c3)c(N3CCC(F)CC3)cn2)cs1)C(F)(F)F [Compound 34, (S)-4-(4-cyclopropyl-1H-imidazol-1-yl)-5-(4-fluoropiperidin-1-yl)-N-(2-(4-(1,1,1-trifluoropropan-2-yl)-4H-1,2,4-triazol-3-yl)thiazol-4-yl)picolinamide]
1.5	C[C@H](n1cnnc1-c1nc(NC(=O)c2cc(-n3cnc(C4CC4)c3)c(N3CCC(C(F)(F)F)CC3)cn2)cs1)C(F)(F)F [Compound 32, (S)-4-(4-cyclopropyl-1H-imidazol-1-yl)-5-(4-(trifluoromethyl)piperidin-1-yl)-N-(2-(4-(1,1,1-trifluoropropan-2-yl)-4H-1,2,4-triazol-3-yl)thiazol-4-yl)picolinamide]
1.8	COC1(C)CN(c2cnc(C(=O)Nc3csc(-c4nncn4C4CC4)n3)cc2-n2cnc(C3CC3)c2)C1 [Compound 4, 4-(4-cyclopropylimidazol-1-yl)-N-[2-(4-cyclopropyl-1,2,4-triazol-3-yl)-1,3-thiazol-4-yl]-5-(3-methoxy-3-methylazetidin-1-yl)pyridine-2-carboxamide]
2.5	O=C(Nc1csc(-c2nncn2C2CC2)n1)c1cc(-n2cnc(C3CC3)c2)c(N2CCN(CC3CC3)CC2)cn1 [Compound 20, 4-(4-cyclopropylimidazol-1-yl)-5-[4-(cyclopropylmethyl)piperazin-1-yl]-N-[2-(4-cyclopropyl-1,2,4-triazol-3-yl)-1,3-thiazol-4-yl]pyridine-2-carboxamide]
2.3	C[C@H](n1cnnc1-c1nc(NC(=O)c2cc(-n3cnc(C4CC4)c3)c(N3CCN4C(=O)OCC4C3)cn2)cs1)C(F)(F)F (stereo partly drawn) [Compound 39, 4-(4-cyclopropyl-1H-imidazol-1-yl)-5-(3-oxotetrahydro-1H-oxazolo[3,4-a]pyrazin-7(3H)-yl)-N-(2-(4-((S)-1,1,1-trifluoropropan-2-yl)-4H-1,2,4-triazol-3-yl)thiazol-4-yl)picolinamide]
14.2	COC1(C)CCN(c2cnc(C(=O)Nc3csc(-c4nncn4C4CC4)n3)cc2-n2cnc(C3CC3)c2)CC1 [Compound 12, 4-(4-cyclopropylimidazol-1-yl)-N-[2-(4-cyclopropyl-1,2,4-triazol-3-yl)-1,3-thiazol-4-yl]-5-(4-methoxy-4-methylpiperidin-1-yI)pyridine-2-carboxamide]
1.8	C[C@H](n1cnnc1-c1nc(NC(=O)c2cc(-n3cnc(C4CC4)c3)c(N3CCN4CCCC4C3)cn2)cs1)C(F)(F)F (stereo partly drawn) [Compound 37, 4-(4-cyclopropyl-1H-imidazol-1-yl)-5-(hexahydropyrrolo[1,2-a]pyrazin-2(1H)-yl)-N-(2-(4-((S)-1,1,1-trifluoropropan-2-yl)-4H-1,2,4-triazol-3-yl)thiazol-4-yl)picolinamide]
1.8	C[C@H](n1cnnc1-c1nc(NC(=O)c2cc(-n3cnc(C4CC4)c3)c(N3CCN(C4CC4)CC3)cn2)cs1)C(F)(F)F [Compound 42, (S)-4-(4-cyclopropyl-1H-imidazol-1-yl)-5-(4-cyclopropylpiperazin-1-yl)-N-(2-(4-(1,1,1-trifluoropropan-2-yl)-4H-1,2,4-triazol-3-yl)thiazol-4-yl)picolinamide]
3.8	O=C(Nc1csc(-c2nncn2C2CC2)n1)c1cc(-n2cnc(C3CC3)c2)c(N2CCCOCC2)cn1 [Compound 14, 4-(4-cyclopropylimidazol-1-yl)-N-[2-(4-cyclopropyl-1,2,4-triazol-3-yl)-1,3-thiazol-4-yl]-5-(1,4-oxazepan-4-yl)pyridine-2-carboxamide]
2.8	O=C(Nc1csc(-c2nncn2C2CC2)n1)c1cc(-n2cnc(C3CC3)c2)c(N2CCN(C3CC3)CC2)cn1 [Compound 19, 4-(4-cyclopropylimidazol-1-yl)-5-(4-cyclopropylpiperazin-1-yl)-N-[2-(4-cyclopropyl-1,2,4-triazol-3-yl)-1,3-thiazol-4-yl]pyridine-2-carboxamide]
2.5	O=C(Nc1csc(-c2nncn2C2CC2)n1)c1cc(-n2cnc(C3CC3)c2)c(N2CCC(F)CC2)cn1 [Compound 8, 4-(4-cyclopropylimidazol-1-yl)-N-[2-(4-cyclopropyl-1,2,4-triazol-3-yl)-1,3-thiazol-4-yl]-5-(4-fluoropiperidin-1-yl)pyridine-2-carboxamide]
0.9	N#CC1CN(c2cnc(C(=O)Nc3csc(-c4nncn4C4CC4)n3)cc2-n2cnc(C3CC3)c2)C1 [Compound 2, 5-(3-cyanoazetidin-1-yl)-4-(4-cyclopropylimidazol-1-yl)-N-[2-(4-cyclopropyl-1,2,4-triazol-3-yl)-1,3-thiazol-4-yl]pyridine-2-carboxamide]
2.1	C[C@H](n1cnnc1-c1nc(NC(=O)c2cc(-n3cnc(C4CC4)c3)c(N3CCC(F)(F)C3)cn2)cs1)C(F)(F)F [Compound 27, (S)-4-(4-cyclopropyl-1H-imidazol-1-yl)-5-(3,3-difluoropyrrolidin-1-yl)-N-(2-(4-(1,1,1-trifluoropropan-2-yl)-4H-1,2,4-triazol-3-yl)thiazol-4-yl)picolinamide]
1.9	C[C@H](n1cnnc1-c1nc(NC(=O)c2cc(-n3cnc(C4CC4)c3)c(N3CCCOCC3)cn2)cs1)C(F)(F)F [Compound 36, (S)-4-(4-cyclopropyl-1H-imidazol-1-yl)-5-(1,4-oxazepan-4-yl)-N-(2-(4-(1,1,1-trifluoropropan-2-yl)-4H-1,2,4-triazol-3-yl)thiazol-4-yl)picolinamide]
1.7	C[C@H](n1cnnc1-c1nc(NC(=O)c2cc(-n3cnc(C4CC4)c3)c(N3CC(C(F)F)C3)cn2)cs1)C(F)(F)F [Compound 26, (S)-4-(4-cyclopropyl-1H-imidazol-1-yl)-5-(3-(difluoromethyl)azetidin-1-yl)-N-(2-(4-(1,1,1-trifluoropropan-2-yl)-4H-1,2,4-triazol-3-yl)thiazol-4-yl)picolinamide]
3.2	COC1CCN(c2cnc(C(=O)Nc3csc(-c4nncn4C4CC4)n3)cc2-n2cnc(C3CC3)c2)CC1 [Compound 10, 4-(4-cyclopropylimidazol-1-yl)-N-[2-(4-cyclopropyl-1,2,4-triazol-3-yl)-1,3-thiazol-4-yl]-5-(4-methoxypiperidin-1-yl)pyridine-2-carboxamide]
2.2	O=C(Nc1csc(-c2nncn2C2CC2)n1)c1cc(-n2cnc(C3CC3)c2)c(N2CC(C(F)F)C2)cn1 [Compound 1, 4-(4-cyclopropylimidazol-1-yl)-N-[2-(4-cyclopropyl-1,2,4-triazol-3-yl)-1,3-thiazol-4-yl]-5-[3-(difluoromethyl)azetidin-1-yl]pyridine-2-carboxamide]
